Test results: PMC4414177, “A novel orally active water-soluble inhibitor of human glutathione transferase exerts a potent and selective antitumor activity against human melanoma xenografts” (Oncotarget, 2015)

How the values were obtained:
A375 human melanoma = assay: A375 fragment xenograft model, antitumor efficacy; format: in vivo, mice; settings: MC3181 i.v. 8mg/kg/d q1dx5 three weeks
Procedure: With regard to the in vivo fragment tumor model, A375 cells were injected (1×10^7) subcutaneously (s.c.) into the right flank of an athymic Nude-Foxn1nu female mouse, and the established primary tumor was then removed and cut into fragments (2–3 mm diameter) and implanted s.c. into recipient mice. Animals were randomly divided in groups of 7 mice and treatment was initiated when a tumor volume of 0.12 ± 0.01 cm^3 (mean ± SEM) was reached.
The reference drug temozolomide, dissolved in DMSO/PBS 1:1 to a final concentration of 10 mg/ml, was administered i.p. q1dx5 at a dose of 100mg/kg/day.
Primary tumor growth was determined for all animals by caliper measurement (minor and major axis length), three times per week, until they were sacrificed. Primary tumor volume was determined using the following equation: V (cm^3)=(α^2×β)/2 (Eq. 3)
The efficacy of the treatment was also analyzed by calculation of the percentage of Increase in Life Span (% ILS), since this analysis gives an evidence of clinical potency. Survival endpoint for each animal was fixed at the day when tumor volume reached 1.0 cm^3 (A375) or 0.4 cm^3 (SK23-MEL and G-361), and data were used to plot the relative Kaplan-Meier curves. Treatment efficacy was then evaluated by comparing the Median Survival Time (MST) of treated group with the MST of control group, and expressed as percentage of ILS: % ILS=[100×(MSTtreated group)/(MSTcontrol group)]−100 (Eq. 4)
Treatment was considered effective when % ILS > 20%.

SK23-MEL cells [1] = assay: Tyrosinase activity; format: cell-based, human; settings: 7 μM, 48 hrs, p < 0.005
Procedure: Cells (1×10^6) were lysed in 1M NaOH at 100°C, for 1 hour and then centrifuged at 15,000 g, for 20 minutes. […] Tyrosinase activity was examined by measuring spectrophotometrically at 475 nm the rate of L-DOPA oxidation to dopachrome over 1 hour at 37°C. Cells [1×10^6 in 40 μl of 20 mM potassium phosphate buffer (pH 6.8) containing 1% Triton X-100 and 1 mM PMSF] were disrupted by freezing and thawing and centrifuged at 15,000 g for 20 minutes at 4°C. The assay was started by addition of 100 μl of 2 mg/ml L-DOPA to 40 μl of supernatant. Tyrosinase activity was expressed as change in absorbance, per hour, per 10^6 cells.

[2] = tested on: five cultured human melanoma cell lines; assay: Cell growth inhibition, SRB assay, whole panel; format: cell-based; settings: range over A375, G-361, MALME-3M, IST-MEL-1, SK23-MEL
Procedure: The IC50 values for each compound were then evaluated by the SRB assay.

A375 cells [3] = assay: Caspase-3 activity in cell lysates; format: cell-based, human; settings: A375, 10 μM
Procedure: (§1) Apoptosis was confirmed by measuring caspase-3 activity, at 25°C, in total cell lysates, using the model fluorescent peptide substrate N-Acetyl-Asp-Glu-Val-Asp-7-amido-4-trifluoromethylcoumarin (Ac-DEVD-AFC). […] Caspase activity was expressed as change in fluorescence per min, per 10^6 cells.

SK23-MEL cells [4] = assay: Caspase-3 activity in cell lysates; format: cell-based, human; settings: 7 μM
Procedure: as §1

SK23-MEL tumors = assay: Histological analysis of SK23-MEL tumors; format: in vivo, mice; settings: SK23-MEL xenografts, MC3181-treated
Source text: At sacrifice, tumors were removed, formalin-fixed and paraffin embedded. All internal organs were fixed and paraffin embedded for the morphological study to evaluate drug effects in normal tissues. Three μm-thick sections were cut and stained with haematoxylin and eosin (H&E). Two observers blindly classified the tissues for necrotic areas, evaluated as percent of total area, mitosis number in 10 high power field randomly selected away from the ischemic necrosis.

A375 cells [5] = assay: JNK phospho-activation (Western blot); format: cell-based, human; settings: A375, 10 μM
Procedure: The cell pellet obtained at each time point was lysed as previously reported and the protein concentration was determined using the Lowry colorimetric assay. Proteins (40 μg) were loaded on 12% SDS-polyacrylamide gel and transferred onto a PVDF membrane (GE Healthcare, Chalfont St. Giles, UK). Anti-P-JNK (Thr183 Tyr185) (Cell Signaling, Beverly, MA, USA), anti-JNK (Cell Signaling) and anti-β actin were used as primary antibodies. […] The ImageJ software was used to analyze the band intensities.

A375 cells [6] = assay: Cell cycle analysis (PI, flow cytometry); format: cell-based, human; settings: A375, 10 μM
Procedure: (§2) A375 and SK23-MEL cells, were fixed with 70% ethanol overnight, stained with PI staining buffer ([…] and 1% Triton X-100) and analyzed by a FACSCalibur (BD Bioscence, San Jose, CA, USA). The percentage of early apoptotic, late apoptotic, and necrotic cells was determined by simultaneous staining of cells with PI (2 μg/ml) and Annexin V-FITC (0.5 μg/ml) (Sigma Aldrich), according to manufacturer's protocol. Flow cytometric data were analyzed by the FlowJo 8.8.6 software (Tree Stare, Inc, Ashland, OR, USA).

SK23-MEL cells [7] = assay: Cell cycle analysis (PI, flow cytometry); format: cell-based, human; settings: 7 μM
Procedure: as §2

GSTM2-2 = target: T1, GSTM2-2 (Homo sapiens, UniProt P28161); assay: Inhibition of GSTM2-2 conjugation activity; format: biochemical; settings: GSTM2-2 5 nM
T1 construct: made in house; host or cells: Escherichia coli
T1 sequence (P28161 1-218): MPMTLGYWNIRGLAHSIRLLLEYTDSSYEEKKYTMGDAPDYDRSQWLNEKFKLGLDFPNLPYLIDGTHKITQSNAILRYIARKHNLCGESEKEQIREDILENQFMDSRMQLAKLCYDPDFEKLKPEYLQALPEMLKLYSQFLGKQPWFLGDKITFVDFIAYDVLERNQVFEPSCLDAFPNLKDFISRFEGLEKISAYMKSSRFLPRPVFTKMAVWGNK
Procedure: Human GSTM2-2, GSTP1-1, JNK1a2 and TRAF2 were expressed in Escherichia coli and purified as previously described; protein concentration was determined using the Lowry colorimetric assay. Unless specified otherwise, all chemicals were purchased from Sigma-Aldrich S.r.l. (Milan, Italy).
GST activity was determined spectrophotometrically at 340 nm (ε = 9,600 M^−1 cm^−1), as previously reported. Inhibition experiments were performed by measuring GSTP1-1 (20 nM) or GSTM2-2 (5 nM) activities in the presence of various amounts of the selected NBD derivative (from 0.1 to 20 μM with GSTP1-1, and from 0.005 and 1 μM with GSTM2-2). Fifty percent inhibitory concentration (IC50) values were calculated by fitting the data to Equation 1, where ν is the percentage of the saturated binding sites; [P]t is the total GST concentration and [L]t is the total inhibitor concentration, assuming a 1:1 interaction stoichiometry between the inhibitor and one GST subunit, as well as that the binding sites are equal and independent.

For `O=[N+]([O-])c1ccc(SCCOCCOCCO)c2nonc12` [MC3181, 2-(2-(2-((7-nitrobenzo[c][1,2,5]oxadiazol-4-yl)thio)ethoxy)ethoxy)ethanol], which “%ILS” value (A375 human melanoma; TMZ i.p. 100 mg/kg/d q1dx5) is on record?
The value was 53%.

And the tumor growth (A375 human melanoma; TMZ i.p. 100 mg/kg/d q1dx5, from day 13 onward, P < 0.05)?
The tumor growth was “significantly delayed tumor growth”.

And the tyrosinase activity (SK23-MEL cells [1])?
The tyrosinase activity was “significant increase”.

And the IC50 [2]?
Its IC50 is 0.8 to 2.4 µM.

And the caspase-3 activation (A375 cells [3])?
The caspase-3 activation was “strong caspase-3 activity”.

What about the caspase-3 activation (SK23-MEL cells [4]) of the same compound?
Its caspase-3 activation is “negligible increase of proteolitic activity”.

What about the tumor histology (SK23-MEL tumors) of the same compound?
Its tumor histology is “melanin production”.

What about the JNK phosphorylation (A375 cells [5]) of the same compound?
The JNK phosphorylation was “sustained increase in JNK phosphorylation”.

And the “start of the increase in JNK phosphorylation after addition of the drug” value (A375 cells [5])?
Its value is no more than 1 h.

What about the “increase in the amount of cells in the sub-G1 phase” value (A375 cells [6]; 24 hrs) of the same compound?
The value was “about 27%”.

And the “increase in the amount of cells in the sub-G1 phase” value (A375 cells [6]; 48 hrs)?
Its value is roughly 36%.

What about the “increase in the number of cells in sub-G1 phase” value (SK23-MEL cells [7]; 24 hrs) of the same compound?
The value was “about 10%”.

And the “increase in the number of cells in sub-G1 phase” value (SK23-MEL cells [7]; 48 hrs)?
The value was roughly 20%.

And the IC50 (GSTM2-2)?
The IC50 was 0.081 ± 0.013 µM.
